Where a name gives a salt, the structure may show the parent alone. Read-outs that look alike come from different tables or passages of the source.
Legend:
human TLR7 = human TLR7 (Homo sapiens (Human), UniProt Q9NYK1); assay: TLR7 inhibition reporter assay (HEK-Blue SEAP reporter, gardiquimod stimulation); assay type: cell-based; details: HEK-Blue cells overexpressing human TLR7, gardiquimod 7.5 μM
human TLR8 = human TLR8 (Homo sapiens (Human), UniProt Q9NR97); assay: TLR8 inhibition reporter assay (HEK-Blue SEAP reporter, R848 stimulation);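 further: SEAP driven by IFN-β minimal promoter with NF-κB and AP-1 sites, 22 h incubation, compounds 0.05 nM–50 µM, inhibition scaled between agonist plus DMSO and reference inhibitor wells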
human TLR8, sequence (Q9NR97 27-1041): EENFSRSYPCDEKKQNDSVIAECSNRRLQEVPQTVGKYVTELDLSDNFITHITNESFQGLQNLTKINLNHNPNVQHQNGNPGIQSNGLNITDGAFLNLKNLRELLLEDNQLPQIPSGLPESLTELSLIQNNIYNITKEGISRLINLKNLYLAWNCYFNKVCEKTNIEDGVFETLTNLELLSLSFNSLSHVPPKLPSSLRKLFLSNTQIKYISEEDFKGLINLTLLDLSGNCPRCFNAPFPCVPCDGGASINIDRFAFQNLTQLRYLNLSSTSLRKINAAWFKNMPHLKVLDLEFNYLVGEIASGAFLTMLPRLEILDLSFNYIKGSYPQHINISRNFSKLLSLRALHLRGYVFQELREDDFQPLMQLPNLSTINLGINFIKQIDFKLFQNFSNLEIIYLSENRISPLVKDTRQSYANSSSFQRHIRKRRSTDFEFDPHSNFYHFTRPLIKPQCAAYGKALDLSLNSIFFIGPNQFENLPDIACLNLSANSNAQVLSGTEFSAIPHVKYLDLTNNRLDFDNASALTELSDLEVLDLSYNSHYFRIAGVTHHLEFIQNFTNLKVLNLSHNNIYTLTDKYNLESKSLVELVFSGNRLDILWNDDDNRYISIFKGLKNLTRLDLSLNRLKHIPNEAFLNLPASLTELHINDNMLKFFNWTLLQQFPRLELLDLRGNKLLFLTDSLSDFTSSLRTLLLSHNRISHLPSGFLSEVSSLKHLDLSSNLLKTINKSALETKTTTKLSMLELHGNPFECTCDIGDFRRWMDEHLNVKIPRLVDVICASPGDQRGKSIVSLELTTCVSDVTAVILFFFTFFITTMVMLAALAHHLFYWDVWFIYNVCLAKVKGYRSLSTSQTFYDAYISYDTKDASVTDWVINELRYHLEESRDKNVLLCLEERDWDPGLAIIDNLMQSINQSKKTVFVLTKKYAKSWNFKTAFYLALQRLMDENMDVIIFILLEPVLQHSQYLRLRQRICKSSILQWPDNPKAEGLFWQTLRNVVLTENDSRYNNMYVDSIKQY

human TLR9 = human TLR9 (Homo sapiens (Human), UniProt Q9NR96); assay: TLR9 inhibition reporter assay (HEK-Blue SEAP reporter, ODN2006 stimulation);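 further: SEAP reporter under IFN-β minimal promoter with five NF-κB and AP-1 sites, 22 h incubation, compounds 0.05 nM–50 µM, inhibition relative to agonist plus DMSO versus known inhibitor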
human TLR9, sequence (Q9NR96 26-1032): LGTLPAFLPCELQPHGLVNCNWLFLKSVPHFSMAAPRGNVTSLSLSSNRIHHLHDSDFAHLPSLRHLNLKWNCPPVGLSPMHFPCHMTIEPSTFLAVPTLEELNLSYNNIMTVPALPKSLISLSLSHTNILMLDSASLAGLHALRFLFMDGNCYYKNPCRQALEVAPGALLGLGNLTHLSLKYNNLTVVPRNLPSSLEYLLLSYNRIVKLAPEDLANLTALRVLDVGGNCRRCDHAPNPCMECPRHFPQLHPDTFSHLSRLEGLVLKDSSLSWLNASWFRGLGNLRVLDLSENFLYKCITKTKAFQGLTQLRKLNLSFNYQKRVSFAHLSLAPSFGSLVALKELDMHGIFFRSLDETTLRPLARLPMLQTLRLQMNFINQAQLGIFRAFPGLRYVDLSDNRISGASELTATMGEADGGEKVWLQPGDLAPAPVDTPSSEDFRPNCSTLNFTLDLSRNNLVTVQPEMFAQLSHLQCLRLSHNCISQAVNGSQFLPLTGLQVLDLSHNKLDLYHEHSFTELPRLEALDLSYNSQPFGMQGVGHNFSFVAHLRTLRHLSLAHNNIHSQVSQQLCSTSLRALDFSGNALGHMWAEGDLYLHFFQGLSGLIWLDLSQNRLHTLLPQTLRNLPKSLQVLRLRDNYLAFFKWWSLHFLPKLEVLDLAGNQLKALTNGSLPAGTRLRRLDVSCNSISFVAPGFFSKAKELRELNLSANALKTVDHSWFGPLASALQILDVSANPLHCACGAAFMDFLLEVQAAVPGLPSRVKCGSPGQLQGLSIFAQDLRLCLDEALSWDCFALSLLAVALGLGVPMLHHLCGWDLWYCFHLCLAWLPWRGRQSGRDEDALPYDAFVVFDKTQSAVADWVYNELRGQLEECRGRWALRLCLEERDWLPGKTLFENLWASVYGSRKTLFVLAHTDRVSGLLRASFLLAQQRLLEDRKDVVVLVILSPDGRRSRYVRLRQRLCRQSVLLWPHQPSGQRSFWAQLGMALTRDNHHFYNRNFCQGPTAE

[1] = read-out: TLR8 IC50, HEK-Blue cells overexpressing human TLR8, R848 15.9 μM, SEAP reporter
[2] = read-out: TLR9 IC50, HEK-Blue cells overexpressing human TLR9, ODN2006 5 nM, SEAP reporter

human TLR7, sequence (Q9NYK1 27-1049): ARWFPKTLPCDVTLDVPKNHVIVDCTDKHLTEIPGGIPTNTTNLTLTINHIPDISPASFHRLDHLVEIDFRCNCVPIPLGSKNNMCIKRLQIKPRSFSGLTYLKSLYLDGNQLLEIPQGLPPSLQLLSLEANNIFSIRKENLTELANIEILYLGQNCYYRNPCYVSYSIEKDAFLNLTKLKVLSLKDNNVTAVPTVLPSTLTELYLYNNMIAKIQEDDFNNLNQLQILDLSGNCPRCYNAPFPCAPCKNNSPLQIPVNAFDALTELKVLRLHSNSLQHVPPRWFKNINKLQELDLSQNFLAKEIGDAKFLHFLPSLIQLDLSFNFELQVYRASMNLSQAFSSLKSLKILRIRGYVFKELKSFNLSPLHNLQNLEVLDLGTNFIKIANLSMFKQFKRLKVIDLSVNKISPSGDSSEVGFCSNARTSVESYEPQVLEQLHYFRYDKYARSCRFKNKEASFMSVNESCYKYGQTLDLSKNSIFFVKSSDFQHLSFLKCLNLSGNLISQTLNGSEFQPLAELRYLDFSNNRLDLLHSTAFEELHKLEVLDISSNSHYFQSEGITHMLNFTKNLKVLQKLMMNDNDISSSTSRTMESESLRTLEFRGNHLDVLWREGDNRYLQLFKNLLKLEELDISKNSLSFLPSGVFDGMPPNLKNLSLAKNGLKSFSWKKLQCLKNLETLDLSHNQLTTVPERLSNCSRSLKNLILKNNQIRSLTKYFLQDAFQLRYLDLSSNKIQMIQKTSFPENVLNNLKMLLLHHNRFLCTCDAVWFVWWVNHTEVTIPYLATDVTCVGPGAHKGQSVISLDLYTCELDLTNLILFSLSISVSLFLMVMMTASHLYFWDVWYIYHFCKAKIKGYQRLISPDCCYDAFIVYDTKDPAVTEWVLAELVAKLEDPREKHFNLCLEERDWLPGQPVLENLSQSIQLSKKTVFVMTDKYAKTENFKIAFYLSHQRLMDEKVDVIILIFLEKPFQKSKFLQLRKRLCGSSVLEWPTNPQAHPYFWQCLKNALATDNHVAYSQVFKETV

Row | Compound | IC50 (human TLR7) [nM] | IC50 (human TLR8; [1]) [nM] | IC50 (human TLR9; [2]) [nM] | IC50 (human TLR8) [nM] | IC50 (human TLR9) [nM]
1 | CCc1c(-c2ccc(OC)c(OC)c2)[nH]c2ccc(C(=O)N3CCC[C@H]3COC)cc12 [Example 27, (S)-(2-(3,4-dimethoxyphenyl)-3-ethyl-1H-indol-5-yl)(2-(methoxymethyl)pyrrolidin-1-yl)methanone] | 1740 | 782 | > 50000 | – | –
2 | CCc1c(-c2ccc(OC)c(OC)c2)[nH]c2ccc(C(=O)N3CCN(CCc4ccccc4)CC3)cc12 [Example 37, (2-(3,4-dimethoxyphenyl)-3-ethyl-1H-indol-5-yl)(4-phenethylpiperazine-1-yl)methanone] | 1300 | 14 | 9940 | – | –
3 | CCc1c(-c2ccnc(C)c2)[nH]c2ccc(C(=O)N(CC)CCN(C)C)cc12 [Example 84, N-(2-(dimethylamino)ethyl)-N,3-diethyl-2-(2-methylpyridin-4-yl)-1H-indole-5-carboxamide] | 49 | 2.1 | 2520 | – | –
4 | CCc1c(-c2ccc(OC)c(OC)c2)[nH]c2ccc(C(=O)NC3CCCCCC3)cc12 [Example 20, N-cycloheptyl-2-(3,4-dimethoxyphenyl)-3-ethyl-1H-indole-5-carboxamide] | 2310 | 858 | > 50000 | – | –
5 | CCc1c(-c2ccc(OC)c(OC)c2)[nH]c2ccc(C(=O)N3CCN(CCOC)CC3)cc12 [Example 41, (2-(3,4-dimethoxyphenyl)-3-ethyl-1H-indol-5-yl)(4-(2-methoxyethyl)piperazin-1-yl)methanone] | 1140 | 12 | 26700 | – | –
6 | Cc1cc(-c2[nH]c3ccc(C(=O)N4CC5CN(C(C)C)CC5C4)cc3c2C(C)C)cc(C)n1 (stereo not drawn) [Example 110, (2-(2,6-dimethylpyridin-4-yl)-3-isopropyl-1H-indol-5-yl)(5-isopropylhexahydropyrrolo[3,4-c]pyrrol-2(1H)-yl)methanone] | 49 | 11 | 410 | – | –
7 | CCc1c(-c2ccc(OC)c(OC)c2)[nH]c2ccc(C(=O)N3CCC[C@H]3CO)cc12 [Example 28, (S)-(2-(3,4-dimethoxyphenyl)-3-ethyl-1H-indol-5-yl)(2-(hydroxymethyl)pyrrolidin-1-yl)methanone] | 1350 | 220 | > 50000 | – | –
8 | Cc1cc(-c2[nH]c3ccc(C(=O)N4CC5CN(CC(=O)N(C)C)CC5C4)cc3c2C(C)C)ccn1 (stereo not drawn) [Example 117, 2-(5-(3-isopropyl-2-(2-methylpyridin-4-yl)-1H-indole-5-carbonyl)hexahydropyrrolo[3,4-c]pyrrol-2(1H)-yl)-N,N-dimethylacetamide] | 730 | 20 | 3700 | – | –
9 | CCc1c(-c2ccc(OC)c(OC)c2)[nH]c2ccc(C(=O)N(CCOC)CCOC)cc12 [Example 77, 2-(3,4-dimethoxyphenyl)-3-ethyl-N,N-bis(2-methoxyethyl)-1H-indole-5-carboxamide] | 714 | 480 | 40300 | – | –
10 | Cc1cc(-c2[nH]c3ccc(C(C)(C)C(=O)NCCC(C)(C)O)cc3c2C(C)C)ccn1 [Example 135, N-(3-hydroxy-3-methylbutyl)-2-(3-isopropyl-2-(2-methylpyridin-4-yl)-1H-indol-5-yl)-2-methylpropanamide] | 202 | 551 | > 50000 | – | –
11 | Cc1cc(-c2[nH]c3ccc(C(=O)NC4CCN(C(C)C)CC4)cc3c2C(C)C)ccn1 [Example 113, 3-isopropyl-N-(1-isopropylpiperidin-4-yl)-2-(2-methylpyridin-4-yl)-1H-indole-5-carboxamide] | 50 | 0.8 | 1270 | – | –
12 | Cc1cc(-c2[nH]c3ccc(C(=O)NC4CCN(C(C)C)CC4)cc3c2CC(F)F)cc(C)n1 [Example 123, 3-(2,2-difluoroethyl)-2-(2,6-dimethylpyridin-4-yl)-N-(1-isopropylpiperidin-4-yl)-1H-indole-5-carboxamide] | 83 | 75 | 231 | – | –
13 | CCc1c(-c2ccc(OC)c(OC)c2)[nH]c2ccc(C(=O)NC[C@@H](F)C(C)(C)O)cc12 [Example 18, (R)-2-(3,4-dimethoxyphenyl)-3-ethyl-N-(2-fluoro-3-hydroxy-3-methylbutyl)-1H-indole-5-carboxamide] | 1660 | 260 | 13800 | – | –
14 | CC(C)c1c(-c2ccnc(N)c2)[nH]c2ccc(C(=O)NC3CCC(N(C)C)CC3)cc12 (stereo not drawn) [Example 87, 2-(2-aminopyridin-4-yl)-N-(4-(dimethylamino)cyclohexyl)-3-isopropyl-1H-indole-5-carboxamide] | 1050 | 27 | 438 | – | –
15 | Cc1cc(-c2[nH]c3ccc(C(=O)N4CC5CNCC5C4)cc3c2C(C)C)cc(C)n1 (stereo not drawn) [Example 107, (2-(2,6-dimethylpyridin-4-yl)-3-isopropyl-1H-indol-5-yl)(hexahydropyrrolo[3,4-c]pyrrol-2(1H)-yl)methanone, 2 HCl] | 73 | – | – | 58 | 264
16 | CCc1c(-c2ccc(OC)c(OC)c2)[nH]c2ccc(C(=O)NCCCN3CCN(C)CC3)cc12 [Example 55, 2-(3,4-dimethoxyphenyl)-3-ethyl-N-(3-(4-methylpiperazin-1-yl)propyl)-1H-indole-5-carboxamide] | 954 | 16 | 2090 | – | –
17 | Cc1cc(-c2[nH]c3ccc(C(=O)N4CC5CN(C(=O)CN(C)C)CC5C4)cc3c2C(C)C)ccn1 (stereo not drawn) [Example 120, 2-(dimethylamino)-1-(5-(3-isopropyl-2-(2-methylpyridin-4-yl)-1H-indole-5-carbonyl)hexahydropyrrolo[3,4-c]pyrrol-2(1H)-yl)ethan-1-one] | 870 | 47 | 752 | – | –
18 | Cc1cc(-c2[nH]c3ccc(C(=O)N(C)CCc4ccccc4)cc3c2C(C)C)cc(C)n1 [Example 102, 2-(2,6-dimethylpyridin-4-yl)-3-isopropyl-N-methyl-N-phenethyl-1H-indole-5-carboxamide] | 185 | 418 | 5060 | – | –
19 | COc1cc(-c2[nH]c3ccc(C(=O)NC4CCN(C(C)C)CC4)cc3c2C(C)C)cn2ncnc12 [Example 127, 3-isopropyl-N-(1-isopropylpiperidin-4-yl)-2-(8-methoxy-[1,2,4]triazolo[1,5-a]pyridin-6-yl)-1H-indole-5-carboxamide] | 2.5 | 1.7 | 916 | – | –

Next, values leading:

Row | IC50 (human TLR7) [nM] | IC50 (human TLR8; [1]) [nM] | IC50 (human TLR9; [2]) [nM] | IC50 (human TLR8) [nM] | IC50 (human TLR9) [nM] | Compound
20 | 46 | 72 | 1310 | – | – | Cc1cc(-c2[nH]c3ccc(C(C)C(=O)N4CCC5(CCN(C)C5)CC4)cc3c2C(C)C)ccn1 (stereo not drawn) [Example 198, 2-(3-isopropyl-2-(2-methylpyridin-4-yl)-1H-indol-5-yl)-1-(2-methyl-2,8-diazaspiro[4.5]decan-8-yl)propan-1-one]
21 | 554 | 783 | 4500 | – | – | Cc1cc(-c2[nH]c3ccc(C(C)(C)C(=O)NC4CCN(C5CCNC5)CC4)cc3c2C(C)C)ccn1 (stereo not drawn) [Example 145, 2-(3-isopropyl-2-(2-methylpyridin-4-yl)-1H-indol-5-yl)-2-methyl-N-(1-(pyrrolidin-3-yl)piperidin-4-yl)propanamide]
22 | 128 | 58 | 1460 | – | – | Cc1cc(-c2[nH]c3ccc(C(C)(C)C(=O)N4CCC(OC5CCNCC5)CC4)cc3c2C(C)C)ccn1 [Example 177, 2-(3-isopropyl-2-(2-methylpyridin-4-yl)-1H-indol-5-yl)-2-methyl-1-(4-(piperidin-4-yloxy)piperidin-1-yl)propan-1-one]
23 | 203 | 147 | 3370 | – | – | Cc1cc(-c2[nH]c3ccc(C(C)C(=O)NC4CCNCC4)cc3c2C(C)C)ccn1 (stereo not drawn) [Example 193, 2-(3-isopropyl-2-(2-methylpyridin-4-yl)-1H-indol-5-yl)-N-(piperidin-4-yl)propanamide]
24 | 35 | 1130 | 4930 | – | – | Cc1cc(-c2[nH]c3ccc(C(C)(C)C(=O)N4CC5(CCNCC5)C4)cc3c2C(C)C)ccn1 [Example 179, 2-(3-isopropyl-2-(2-methylpyridin-4-yl)-1H-indol-5-yl)-2-methyl-1-(2,7-diazaspiro[3.5]nonan-2-yl)propan-1-one]
25 | 22 | 141 | 1490 | – | – | Cc1cc(-c2[nH]c3ccc(C(C)(C)C(=O)N4CCC5(CCN(C)C5)CC4)cc3c2C(C)C)ccn1 [Example 150, 2-(3-isopropyl-2-(2-methylpyridin-4-yl)-1H-indol-5-yl)-2-methyl-1-(2-methyl-2,8-diazaspiro[4.5]decan-8-yl)propan-1-one]
26 | 51 | 88 | 866 | – | – | Cc1cc(-c2[nH]c3ccc(C(C)C(=O)N[C@@H]4CCCNC4)cc3c2C(C)C)ccn1 (stereo partly drawn) [Example 196, 2-(3-isopropyl-2-(2-methylpyridin-4-yl)-1H-indol-5-yl)-N—((R)-piperidin-3-yl)propanamide]
27 | 26 | 64 | 677 | – | – | Cc1cc(-c2[nH]c3ccc(C(C)(C)C(=O)NC4CCC5CNCC54)cc3c2C(C)C)ccn1 (stereo not drawn) [Example 144, 2-(3-isopropyl-2-(2-methylpyridin-4-yl)-1H-indol-5-yl)-2-methyl-N-(octahydrocyclopenta[c]pyrrol-4-yl)propanamide]
28 | 260 | 211 | 8390 | – | – | Cc1cc(-c2[nH]c3ccc(C(C)(C)C(=O)N4CC5CC4CN5)cc3c2C(C)C)ccn1 (stereo not drawn) [Example 176, 1-(2,5-diazabicyclo[2.2.1]heptan-2-yl)-2-(3-isopropyl-2-(2-methylpyridin-4-yl)-1H-indol-5-yl)-2-methylpropan-1-one]
29 | 58 | 68 | 895 | – | – | Cc1cc(-c2[nH]c3ccc(C(C)(C)C(=O)N[C@@H]4CCNC4)cc3c2C(C)C)ccn1 [Example 141, (R)-2-(3-isopropyl-2-(2-methylpyridin-4-yl)-1H-indol-5-yl)-2-methyl-N-(pyrrolidin-3-yl)propanamide]
